The values that follow come from US20260226006A1, “INDOLE COMPOUND, PREPARATION METHOD THEREFOR AND USE THEREOF” (SUZHOU MERNA THERAPEUTICS CO. LTD, priority 2023, published 2026).

One experiment concerns HaCaT keratinocytes. Nature of the experiment: Inhibition of HBEGF-induced differentiation of HaCaT keratinocytes, marker mRNA by RT-PCR (Example 21). To be noted: 2.5 ng/mL human recombinant HBEGF protein + test compound, 24 hours. The format is cell-based, human. How it is done:
Human HaCaT keratinocytes were cultured in a DMEM culture medium containing 10% fetal bovine serum, 100 U/mL penicillin, and 100 µg/mL streptomycin. The cells were seeded into a 96-well plate at a density of […] and placed in an incubator containing 5% carbon dioxide for culture at 37° C. for 24 hours. An equal volume of DMSO was added into control well 1, a 2.5 ng/mL human recombinant HBEGF protein (Abcam, ab205523) was added into control well 2, and a 2.5 ng/mL human recombinant HBEGF protein and corresponding concentrations of test compounds were added into sample wells. The cells were continuously cultured for 24 hours, washed with PBS, and then collected by high-speed centrifugation. Total RNA was extracted using a Trizol reagent (Sigma Aldrich). 1 μg of RNA was reverse-transcribed into cDNA using a cDNA reverse transcription kit (Transgene Biotech, AT311-03). 1.25 μL of a primer (with a primer sequence shown in Table 2), 10 μL of an iTag Universal SYBR Green supermix (Bio-Rad, 172-S125), and an appropriate amount of DEPC ultrapure water were added to formulate 20 μL of a reaction solution to perform an RT-PCR reaction. Upon completion of the reaction, the reaction solution was subjected to agarose gel electrophoresis to determine the mRNA expression amounts of keratinocyte differentiation markers KRT1, KRT10, Loricrin, and Involucrin.

In a further experiment the test system is THP-1 cells. Nature of the experiment: m6A methylation level of THP-1 cells by LC-MS (Example 19). Particulars: 24 hours. The format is cell-based. How it is done:
1*10^8 THP-1 cells were seeded in culture dishes, into which 400 nM compound 1, 4 nM and 400 nM compounds 2b, 5a, and 8b, 4 nM and 4 μM nicotinamide, and 5 μM m6A methylase inhibitor UZH2 were added, respectively. The cells were cultured in an incubator containing 5% CO2 at 37° C. for 24 hours. After culture media were discarded, the cells were washed with PBS and centrifuged to discard the supernatant. 400 μL of an RLT cell lysis buffer was added, and the cells were stored at −80° C. A portion of samples were selected, into which 400 μL of 70% ethanol was added and evenly stirred. 700 μL of a sample was transferred to an RNeasy centrifugation column and centrifuged for 15 seconds (8,000 g, 25° C.). Then, 700 μL of an RW1 buffer solution was added and centrifuged for 15 seconds (8,000 g, 25° C.), followed by the addition of 500 μL of an RPE buffer solution and centrifugation for 16 seconds (8,000 g, 25° C.). The above steps were repeated twice, followed by centrifugation for 2 minutes to completely remove the eluent. 30 μL of nuclease-free water was added to a chromatographic column, and the cells were incubated for 5 minutes and then centrifuged for 2 minutes (12,000 g, 25° C.). The steps were repeated 3 times. 2 μL of an RNA sample was selected and dissolved in 98 μL of a 10 mM Tris buffer solution, and the absorbance at 260 nm was measured using a Nanodrop to determine the RNA concentration.
50 μg of total RNA was selected and dissolved in 100 μL of nuclease-free water. Oligo (dT) magnetic beads were resuspended, 50 μL of the magnetic beads were transferred to a 1.5 mL test tube, 500 μL of a binding buffer solution was added, the mixture was allowed to stand, and the supernatant was removed. 100 μL of an RNA sample was added to 200 μL of a magnetic bead suspension for mixing, the mixture was stirred and incubated in a Thermomixer at 25° C. for 5 minutes, the supernatant was discarded, and then 200 μL of a washing buffer solution was added. The steps were repeated 2 times, and then centrifugation was performed for 10 seconds (2,000 g, 25° C.). 50 μL of an elution buffer solution was added and evenly mixed, the mixture was heated to 75° C., the supernatant was transferred to a new 1.5 mL test tube and purified using an RNA Clean & Concentrator kit, and the RNA concentration was determined.
20 μL (approximately 200 ng) of an mRNA sample and 20 μL of a Nuclease P1 digestion premix (including 0.5 μL of 2 unit/μL Nuclease P1, 0.4 μL of 5 M NaCl, 2 μL of 0.1 M ZnCl2, and 17.1 μL of PCR-grade water) were added into each test tube, and the mixture was stirred and incubated in a Thermomixer at 37° C. for 2 hours. 2 μL of a 2 M NH4HCO3 solution and 1 unit of alkaline phosphatase were added, and the mixture was stirred and incubated in a Thermomixer at 37° C. for 2 hours. 1 μL of a 1.2 M HCl neutralization solution was added, and centrifugation was performed for 30 minutes (16,000 g, 4° C.). 20 μL of the supernatant was collected, an m6A methylation fragment was analyzed by LC-MS, and the m6A inhibition rate was calculated.
m6A inhibition rate (%)=(measured ion peak area−blank control)/(positive ion peak area−blank control)*100.

In the case of `NC(=O)C1CCCc2c1[nH]c1ccc(Cl)cc21` (stereo not drawn) [Compound 2, 6-chloro-2,3,4,9-tetrahydro-1H-carbazole-1-carboxamide], the “mRNA expression amounts of HaCaT differentiation markers KRT1, KRT10, Loricrin, and Involucrin” value with HaCaT keratinocytes is on record as “significantly inhibited”.
Take `NC(=O)c1cccnc1` [Nicotinamide, nicotinamide]: the “m6A methylation level of mRNA of the cells” value (shortened to “m6A methylation level”) in the experiment on THP-1 cells (4 nM and 4 μM) is reported as “no inhibitory effect”.
Turning to `CN1CC[C@H](C(N)=O)c2[nH]c3ccc(Cl)cc3c21` [Compound 8b, (S)-8-chloro-1-methyl-2,3,4,5-tetrahydropyrido[3,2-b]indole-4-carboxamide], the “mRNA expression amounts of HaCaT differentiation markers KRT1, KRT10, Loricrin, and Involucrin” value in the experiment on HaCaT keratinocytes is listed as “significantly inhibited”. For the same molecule, the “m6A methylation level” value with THP-1 cells (4 nM and 400 nM) is “significantly inhibit”.
With `NC(=O)C1c2[nH]c3ccc(Cl)cc3c2C2CCC1C2` [Compound 5a, (S)-2-chloro-5,6,7,8,9,10-hexahydro-7,10-methanocyclohepta[b]indole-6-carboxamide], the “mRNA expression amounts of HaCaT differentiation markers KRT1, KRT10, Loricrin, and Involucrin” value in the experiment with HaCaT keratinocytes is “significantly inhibited”. Further, the “m6A methylation level” value in the experiment on THP-1 cells (4 nM and 400 nM) was “significantly inhibit”.
Regarding `NC(=O)[C@H]1CCCc2c1[nH]c1ccc(Cl)cc21` [Compound 2b, (S)-6-chloro-2,3,4,9-tetrahydro-1H-carbazole-1-carboxamide], in the experiment on HaCaT keratinocytes, the “mRNA expression amounts of HaCaT differentiation markers KRT1, KRT10, Loricrin, and Involucrin” value is given as “significantly inhibited”. In the experiment on THP-1 cells (4 nM and 400 nM), the “m6A methylation level” value is reported as “significantly inhibit”. In the experiment on THP-1 cells (400 nM), the m6A inhibition activity entry was “comparable to that of the m6A methylase inhibitor UZH2 at a concentration of 5 μM”.
